Measured values from patent US8217029B2, “Oxazolidinone antibiotics” (Actelion Pharmaceuticals Ltd, priority 2007, dated 2012).
In brackets after ≈: the same amount, converted by molar mass.

Each compound was assayed on S aureus A798 (assay: Minimal inhibitory concentration (MIC), microdilution method in cation-adjusted Mueller-Hinton Broth following NCCLS guidelines). Conditions: pH of test medium 7.2-7.3.
Type: cell-based
Experimental: These assays have been performed following the description given in “Methods for dilution Antimicrobial Susceptibility Tests for Bacteria that Grow Aerobically, 4th ed.; Approved standard: NCCLS Document M7-A4; National Committee for Clinical Laboratory Standards Villanova, Pa., USA, 1997”. Minimal inhibitory concentrations (MICs; mg/l) were determined in cation-adjusted Mueller-Hinton Broth by a microdilution method following NCCLS guidelines (National Committee for Clinical Laboratory Standards. Methods for Dilution Antimicrobial Susceptibility). The pH of the test medium was 7.2-7.3. All Example compounds were tested against several Gram positive and Gram negative bacteria.
Work on `COc1ccc2nccc(N3C[C@@H]4C[C@H]3CN4C[C@@H]3CN(c4ccc5c(c4)NC(=O)CS5)C(=O)O3)c2n1` [Example 152, 6-{(R)-5-[(1S,4S)-5-(6-Methoxy-[1,5]naphthyridin-4-yl)-2,5-diaza-bicyclo[2.2.1]hept-2-ylmethyl]-2-oxo-oxazolidin-3-yl}-4H-benzo[1,4]thiazin-3-one] yielded an MIC of 0.063 µg/mL (≈ 0.121 µM). `O=C1O[C@H](CN2CCN(c3ccnc4ccccc34)CC2)CN1c1ccc2c(c1)OCCO2` [Example 99, (R)-3-(2,3-Dihydro-benzo[1,4]dioxin-6-yl)-5-(4-quinolin-4-yl-piperazin-1-ylmethyl)-oxazolidin-2-one] was tested, and the MIC was no more than 0.031 µg/mL. Compound `COc1ccc2nccc(N3CCN(CC4CN(c5cc6c(nn5)OCCO6)C(=O)O4)CC3)c2n1` (racemic) [Example 110, (RS)-3-(6,7-Dihydro-[1,4]dioxino[2,3-c]pyridazin-3-yl)-5-[4-(6-methoxy-[1,5]naphthyridin-4-yl)-piperazin-1-ylmethyl]-oxazolidin-2-one] has an MIC of 8 µg/mL (≈ 16.7 µM). With `COc1ccc2nccc(N3CC[C@H](NC(=O)[C@@H]4CN(c5ccc6c(c5)OCCO6)C(=O)O4)C3)c2n1` [Example 60, (S)-3-(2,3-Dihydro-benzo[1,4]dioxin-6-yl)-2-oxo-oxazolidine-5-carboxylic acid [(S)-1-(6-methoxy-[1,5]naphthyridin-4-yl)-pyrrolidin-3-yl]-amide] the MIC was no more than 0.031 µg/mL. For `O=C1CSc2ccc(N3C[C@@H](CN[C@@H]4CCN(c5ccnc6ccc(F)cc56)C4)OC3=O)cc2N1` [Example 177, 6-((R)-5-{[(R)-1-(6-Fluoro-quinolin-4-yl)-pyrrolidin-3-ylamino]-methyl}-2-oxo-oxazolidin-3-yl)-4H-benzo[1,4]thiazin-3-one], the MIC was 0.125 µg/mL (≈ 0.253 µM). In the case of `COc1ccc2nccc(N3C[C@@H](O)[C@H](NC[C@@H]4CN(c5ccc6c(c5)NC(=O)CS6)C(=O)O4)C3)c2n1` (relative stereo) [Example 76, 6-((R)-5-{[(3R*,4R*)-4-Hydroxy-1-(6-methoxy-[1,5]naphthyridin-4-yl)-pyrrolidin-3-ylamino]-methyl}-2-oxo-oxazolidin-3-yl)-4H-benzo[1,4]thiazin-3-one], the MIC is reported as no more than 0.031 µg/mL. `COc1ccc2nccc(N3CC(CN(C)C[C@H]4CN(c5ccc6c(c5)OCCO6)C(=O)O4)C3)c2n1` [Example 118, (S)-3-(2,3-Dihydro-benzo[1,4]dioxin-6-yl)-5-({[1-(6-methoxy-[1,5]naphthyridin-4-yl)-azetidin-3-ylmethyl]-methyl-amino}-methyl)-oxazolidin-2-one] gave an MIC of 0.25 µg/mL (≈ 0.509 µM). `COc1cnc2cccc(N3CC(NC[C@@H]4CN(c5ccc6c(c5)NC(=O)CS6)C(=O)O4)C3)c2c1` [Example 157, 6-((R)-5-{[1-(3-Methoxy-quinolin-5-yl)-azetidin-3-ylamino]-methyl}-2-oxo-oxazolidin-3-yl)-4H-benzo[1,4]thiazin-3-one] was tested, and the MIC was no more than 0.031 µg/mL. With `COc1ccc2nccc(N3CC(N(CCO)C[C@@H]4CN(c5ccc6c(c5)NC(=O)CS6)C(=O)O4)C3)c2n1` [Example 128, 6-[(R)-5-({(2-Hydroxy-ethyl)-[1-(6-methoxy-[1,5]naphthyridin-4-yl)-azetidin-3-yl]-amino}-methyl)-2-oxo-oxazolidin-3-yl]-4H-benzo[1,4]thiazin-3-one] the MIC was no more than 0.031 µg/mL. Compound `COc1ccc2nccc(N3CCN(C[C@@H]4CN(c5ccc6c(c5)NC(=O)CS6)C(=O)O4)CC3)c2n1` [Example 22, 6-{(R)-5-[4-(6-Methoxy-[1,5]naphthyridin-4-yl)-piperazin-1-ylmethyl]-2-oxo-oxazolidin-3-yl}-4H-benzo[1,4]thiazin-3-one] has an MIC of no more than 0.031 µg/mL. With `COc1ccc2nccc(N3CC4C(C3)C4NC[C@@H]3CN(c4ccc(C)c(F)c4)C(=O)O3)c2n1` (stereo partly drawn) [Example 88, (R)-3-(3-Fluoro-4-methyl-phenyl)-5-{[(1a,5a,6a)-3-(6-methoxy-[1,5]naphthyridin-4-yl)-3-aza-bicyclo[3.1.0]hex-6-ylamino]-methyl}-oxazolidin-2-one] the “MIC S aureus A798” value was 0.125 µg/mL (≈ 0.27 µM). `COc1ccc2ncc(F)c(N3CCN(C[C@@H]4CN(c5ccc6c(c5)NC(=O)CS6)C(=O)O4)CC3)c2n1` [Example 98, 6-{(R)-5-[4-(3-Fluoro-6-methoxy-[1,5]naphthyridin-4-yl)-piperazin-1-ylmethyl]-2-oxo-oxazolidin-3-yl}-4H-benzo[1,4]thiazin-3-one] showed an MIC of no more than 0.031 µg/mL. `COc1ccc2nccc(N3CCN(C[C@H]4CN(c5ccc(C)c(F)c5)C(=O)O4)CC3)c2n1` [Example 38, (S)-3-(3-Fluoro-4-methyl-phenyl)-5-[4-(6-methoxy-[1,5]naphthyridin-4-yl)-piperazin-1-ylmethyl]-oxazolidin-2-one] was tested, and the MIC was 0.063 µg/mL (≈ 0.14 µM). `COc1ccc2nccc(N3CCN(C[C@@H]4CN(c5ccc(C)c(F)c5)C(=O)O4)CC3)c2n1` [Example 36, (R)-3-(3-Fluoro-4-methyl-phenyl)-5-[4-(6-methoxy-[1,5]naphthyridin-4-yl)-piperazin-1-ylmethyl]-oxazolidin-2-one] was tested, and the MIC was no more than 0.031 µg/mL. `COc1ccc2nccc(C3(O)CCN(C[C@@H]4CN(c5ccc6c(c5)NC(=O)CO6)C(=O)O4)CC3)c2c1` [Example 132, 6-{(R)-5-[4-Hydroxy-4-(6-methoxy-quinolin-4-yl)-piperidin-1-ylmethyl]-2-oxo-oxazolidin-3-yl}-4H-benzo[1,4]oxazin-3-one] showed an MIC of 0.063 µg/mL (≈ 0.125 µM). In the case of `COc1ccc2nccc(N3C[C@H](NC[C@@H]4CN(c5ccc6c(c5)NC(=O)CS6)C(=O)O4)[C@@H](OC)C3)c2n1` [Example 182, 6-((R)-5-{[(3S,4S)-4-Methoxy-1-(6-methoxy-[1,5]naphthyridin-4-yl)-pyrrolidin-3-ylamino]-methyl}-2-oxo-oxazolidin-3-yl)-4H-benzo[1,4]thiazin-3-one], the MIC is reported as no more than 0.031 µg/mL. In the case of `COc1ccc2ncc(F)c(N3CC[C@H](NC[C@@H]4CN(c5ccc6c(c5)NC(=O)CO6)C(=O)O4)C3)c2n1` [Example 64, 6-((R)-5-{[(S)-1-(3-Fluoro-6-methoxy-[1,5]naphthyridin-4-yl)-pyrrolidin-3-ylamino]-methyl}-2-oxo-oxazolidin-3-yl)-4H-benzo[1,4]oxazin-3-one], the MIC is reported as no more than 0.031 µg/mL. Work on `COc1ccc2nccc(N3CCC(O)(CNC[C@@H]4CN(c5ccc6c(c5)NC(=O)CS6)C(=O)O4)C3)c2n1` (mixture of isomers) [Example 129, 6-[(R)-5-({[(RS)-3-Hydroxy-1-(6-methoxy-[1,5]naphthyridin-4-yl)-pyrrolidin-3-ylmethyl]-amino}-methyl)-2-oxo-oxazolidin-3-yl]-4H-benzo[1,4]thiazin-3-one] yielded an MIC of 0.063 µg/mL. `COc1ccc2ncc(F)c(N3CC[C@H](NC[C@H]4CN(c5ccc6c(c5)NC(=O)CS6)C(=O)O4)C3)c2n1` [Example 164, 6-((S)-5-{[(S)-1-(3-Fluoro-6-methoxy-[1,5]naphthyridin-4-yl)-pyrrolidin-3-ylamino]methyl}-2-oxo-oxazolidin-3-yl)-4H-benzo[1,4]thiazin-3-one] gave an MIC of no more than 0.031 µg/mL. For `COc1ccc2nccc(N3CCN(C(=O)C[C@@H]4CN(c5ccc6c(c5)NC(=O)CS6)C(=O)O4)CC3)c2n1` [Example 114, 6-((R)-5-{2-[4-(6-Methoxy-[1,5]naphthyridin-4-yl)-piperazin-1-yl]-2-oxo-ethyl}-2-oxo-oxazolidin-3-yl)-4H-benzo[1,4]thiazin-3-one], the MIC was no more than 0.031 µg/mL. `COc1ccc2ncc(F)c(N3CCCN(C[C@@H]4CN(c5ccc6c(c5)NC(=O)CO6)C(=O)O4)CC3)c2n1` [Example 103, 6-{(R)-5-[4-(3-Fluoro-6-methoxy-[1,5]naphthyridin-4-yl)-[1,4]diazepan-1-ylmethyl]-2-oxo-oxazolidin-3-yl}-4H-benzo[1,4]oxazin-3-one] gave an MIC of no more than 0.031 µg/mL. `COc1ccc2nc(C)cc(N3CC(NC[C@@H]4CN(c5ccc6c(c5)NC(=O)CS6)C(=O)O4)C3)c2c1` [Example 131, 6-((R)-5-{[1-(6-Methoxy-2-methyl-quinolin-4-yl)-azetidin-3-ylamino]-methyl}-2-oxo-oxazolidin-3-yl)-4H-benzo[1,4]thiazin-3-one] showed an MIC of no more than 0.031 µg/mL. Work on `COc1ccc2ncc(F)c(N3CCC(N(C)C[C@@H]4CN(c5ccc6c(c5)NC(=O)CS6)C(=O)O4)CC3)c2n1` [Example 124, 6-[(R)-5-({[1-(3-Fluoro-6-methoxy-[1,5]naphthyridin-4-yl)-piperidin-4-yl]-methyl-amino}-methyl)-2-oxo-oxazolidin-3-yl]-4H-benzo[1,4]thiazin-3-one] yielded an MIC of no more than 0.031 µg/mL. `COc1ccc2nccc(N3CCN(C[C@@H]4CN(c5ccc6c(c5)NC(=O)CS6)C(=O)O4)CC3=O)c2n1` [Example 101, 6-{(R)-5-[4-(6-Methoxy-[1,5]naphthyridin-4-yl)-3-oxo-piperazin-1-ylmethyl]-2-oxo-oxazolidin-3-yl}-4H-benzo[1,4]thiazin-3-one] was tested, and the MIC was 0.5 µg/mL (≈ 0.96 µM). With `COc1ccc2nccc(N3CC[C@H](NC[C@@H]4CN(c5ccc6c(c5)NC(=O)CO6)C(=O)O4)C3)c2n1` [Example 69, 6-((R)-5-{[(S)-1-(6-Methoxy-[1,5]naphthyridin-4-yl)-pyrrolidin-3-ylamino]-methyl}-2-oxo-oxazolidin-3-yl)-4H-benzo[1,4]oxazin-3-one] the MIC was no more than 0.031 µg/mL. Work on `COc1ccc2nccc(N3CCN(C[C@@H]4CN(c5ccc(Br)c(C)c5)C(=O)O4)CC3)c2n1` [Example 31, (R)-3-(4-Bromo-3-methyl-phenyl)-5-[4-(6-methoxy-[1,5]naphthyridin-4-yl)-piperazin-1-ylmethyl]-oxazolidin-2-one] yielded an MIC of no more than 0.031 µg/mL. `COc1ccc2nccc(N3CC(NCCC4CN(c5ccc6c(c5)NC(=O)CS6)C(=O)O4)C3)c2n1` (racemic) [Example 58, (RS)-6-(5-{2-[1-(6-Methoxy-[1,5]naphthyridin-4-yl)-azetidin-3-ylamino]-ethyl}-2-oxo-oxazolidin-3-yl)-4H-benzo[1,4]thiazin-3-one] gave an MIC of no more than 0.031 µg/mL. Compound `COc1ccc2nccc(N3CC(N(C)C[C@@H]4CN(c5ccc6c(c5)OCO6)C(=O)O4)C3)c2n1` [Example 145, (R)-3-Benzo[1,3]dioxol-5-yl-5-({[1-(6-methoxy-[1,5]naphthyridin-4-yl)-azetidin-3-yl]-methyl-amino}-methyl)-oxazolidin-2-one] has an MIC of 0.125 µg/mL (≈ 0.27 µM).
